≈ marks a conversion by molar mass, not a printed value. Counter-ions that a name gives are not always drawn. Like-named read-outs stand apart in the source and are kept apart here.

For one test, the system named is log phase E. coli. Kind of test: MIC against log phase E. coli. Type of test: cell-based, Escherichia coli. On the procedure:
(§1) Escherichia coli K12; Gram negative; Reference strain.
The above-described overnight cultures were diluted (1000×) with iso-sensitest broth. The cultures were then incubated at 37° C. with shaking for 1-2 hours to reach log CFU 6, which served as log phase cultures.
The bactericidal activity of the drugs against log phase cultures were determined by minimal inhibitory concentration (MIC) of the drugs, which is defined as the lowest concentration which inhibits visible growth. Different concentrations of each test compound were incubated with the log-phase cultures in 96 well plates for 24 hours. Bactericidal activity was then examined by taking a spectrophotometer reading (using a plate reader) at 405 nm.

Another test relates to persistent E. coli. Kind of test: Bactericidal activity against persistent E. coli selected by gentamicin. Type of test: cell-based, Escherichia coli. The note with it: for log reduction at 6.25 µg/mL / log reduction at 12.5 µg/mL / log reduction at 25 µg/mL: Escherichia coli, read-out: Log Kill. The method, then: as §1
An antibiotic (gentamicin) was added to 5-6 day stationary-phase cultures to the final concentration of 50 to 100 μg/ml for 24 hours. After 24 hours of antibiotic treatment, the cells are washed 3 times with phosphate buffered saline (PBS), and then resuspended in PBS. The surviving bacterial cells are used as persisters. Viability is estimated by CFU counts. The persisters were then used in measurements of bactericidal activity for test compounds.
Different concentrations of each test compound were incubated with the (persister) cell suspension in 96 well plates for various periods of time (24 and 48 hours). Bactericidal activity was then determined by taking CFU counts of the resulting cultures, as described above.

In test [1] the test system is stationary phase S. aureus. Kind of test: Bactericidal activity against stationary phase S. aureus (CFU counts). Type of test: cell-based, Staphylococcus aureus. The following applies: for log reduction at 6.25 µg/mL / log reduction at 12.5 µg/mL / log reduction at 25 µg/mL: Staphylococcus aureus, read-out: Log Kill. The method, then:
Staphylococcus aureus (Oxford strain); Gram positive; Reference strain.
(§2) Bacteria were grown in 10 ml of nutrient broth (No. 2 (Oxoid)) overnight at 37° C., with continuous shaking at 120 rpm. The overnight cultures were diluted (1000×) in 100 ml of growth medium and then incubated without shaking for 10 days. Viability of the bacteria was estimated by colony forming unit (CFU) counts at 2 hour intervals at the first 24 hours and at 12-24 hours afterwards. From serial 10-fold dilutions of the experimental cultures, 100 μl samples were added to triplicate plates of nutrient agar plates (Oxoid) and blood agar plates (Oxoid). Colony forming units (CFU) were counted after incubation of the plates at 37° C. for 24 hours.
(§3) Cultures incubated for more than 24 hours are in the stationary phase. For drug screening, 5-6 day old stationary phase cultures were used.
(§4) Different concentrations of each test compound were incubated with stationary phase cultures (5-6 day cultures) in 96 well plates for 24 or 48 hours. Bactericidal activity was then determined by taking CFU counts of the resulting cultures, as described above.

A further test deals with stationary phase E. coli. Kind of test: Bactericidal activity against stationary phase E. coli (CFU counts). Type of test: cell-based, Escherichia coli. The note with it: for log reduction at 6.25 µg/mL / log reduction at 12.5 µg/mL / log reduction at 25 µg/mL: Escherichia coli, read-out: Log kill. The method, then: as §1, §2, §3, §4
Test [2] relates to NDM-1 Klebsiella pneumoniae. Kind of test: Chequerboard analysis with colistin against NDM-1 Klebsiella pneumoniae. Type of test: cell-based.
The mark [3] stands for this setting: Escherichia coli, read-out: MIC.

The MIC is the smallest concentration in the dilution series that meets the test's criterion for growth inhibition. In the case of `N.N.O=C([O-])C1(C(=O)[O-])CCC1.[Pt+2]` [Carboplatin], the MIC entry against log phase E. coli is “— (— signifies MIC higher than 50 μg/ml)”. Moreover, the “Log Kill” value in the test on persistent E. coli (6.25 μg/ml) was determined as 1.55; in the test on persistent E. coli (12.5 μg/ml), 2.55; in the test with persistent E. coli (25 μg/ml), 6.21; in test [1] (6.25 μg/ml), 0.92; in test [1] (12.5 μg/ml), 6.03; in test [1] (25 μg/ml), 6.03. Moreover, the Log Kill in the test with stationary phase E. coli (6.25 μg/ml), in the test on stationary phase E. coli (12.50 μg/ml) and with stationary phase E. coli (25.00 μg/ml) was 6.14 each time.
Consider `CN(C)CC/C=C1/c2ccccc2Sc2ccc(Cl)cc21` [Chlorprothixene hydrochloride], for which, in the test with log phase E. coli (setting [3]), the MIC was determined as 20 µg/mL. In addition, the values for the log reduction at 6.25 µg/mL (in the test on persistent E. coli (6.25 μg/ml); in test [1] (6.25 μg/ml)) were 0.02 and 1.83, respectively. Moreover, the log reduction at 12.5 µg/mL stood at 0.03 in the test with persistent E. coli (12.5 μg/ml) and 6.15 in test [1] (12.5 μg/ml). Moreover, the log reduction at 25 µg/mL in the test on persistent E. coli (25 μg/ml) was determined as 6.21; in test [1] (25 μg/ml), 6.15. Besides, the spectrophotometer reading in test [2] (chlorprothixene hydrochloride 0.25 mg/L alone) amounted to 1.14; in test [2] (chlorprothixene hydrochloride 0.5 mg/L alone), 1.15; in test [2] (chlorprothixene hydrochloride 1 mg/L alone), 1.13; in test [2] (chlorprothixene hydrochloride 2 mg/L alone), 1.12; in test [2] (chlorprothixene hydrochloride 4 mg/L alone), 1.12; in test [2] (chlorprothixene hydrochloride 8 mg/L alone) it was 1.13. Moreover, the spectrophotometer reading in test [2] (chlorprothixene hydrochloride 16 mg/L alone) stood at 1.10; in test [2] (chlorprothixene hydrochloride 32 mg/L alone), 1.05; in test [2] (chlorprothixene hydrochloride 64 mg/L alone), 0.70; in test [2] (chlorprothixene hydrochloride 128 mg/L alone), 0.62; in test [2] (chlorprothixene hydrochloride 256 mg/L alone) it was 0.40.
On to `N.N.[Cl][Pt][Cl]` [Cisplatin], for which the MIC entry against log phase E. coli is “— (— signifies MIC higher than 50 μg/ml)”. Further, the “Log Kill” value in the test with persistent E. coli (6.25 μg/ml) was 6.21; in the test with persistent E. coli (12.5 μg/ml), 6.21; in the test with persistent E. coli (25 μg/ml), 6.21; in test [1] (6.25 μg/ml), 6.03; in test [1] (12.5 μg/ml), 6.03; in test [1] (25 μg/ml), 6.03. Moreover, the Log Kill in the test with stationary phase E. coli (6.25 μg/ml), with stationary phase E. coli (12.50 μg/ml) and with stationary phase E. coli (25.00 μg/ml) was 6.14 throughout.
On to `CO[C@@]12[C@H](COC(N)=O)C3=C(C(=O)C(C)=C(N)C3=O)N1C[C@@H]1N[C@@H]12` [Mitomycin C], for which, in the test on log phase E. coli, the MIC stood at 0.3 µg/mL (≈ 0.897 µM). Moreover, the “Log Kill” value in the test on persistent E. coli (6.25 μg/ml) came to 6.21; in the test on persistent E. coli (12.5 μg/ml), 6.21; in the test on persistent E. coli (25 μg/ml), 6.21; in test [1] (6.25 μg/ml), 6.15; in test [1] (12.5 μg/ml), 6.15; in test [1] (25 μg/ml), 6.15. Moreover, the Log Kill in the test with stationary phase E. coli (6.25 μg/ml) was found to be 2.27; with stationary phase E. coli (12.50 μg/ml), 6.14; with stationary phase E. coli (25.00 μg/ml) it was 6.14.
In the case of `Cl.Cl.O=C1c2c(O)ccc(O)c2C(=O)c2c(NCCNCCO)ccc(NCCNCCO)c21` [Mitoxanthrone hydrochloride], in the test on log phase E. coli, the MIC entry is reported as “— (— signifies MIC higher than 50 μg/ml)”. The “Log Kill” value with persistent E. coli (6.25 μg/ml) is 6.21; in the test with persistent E. coli (12.5 μg/ml) it was 6.21; in the test on persistent E. coli (25 μg/ml), 6.21; in the test with stationary phase E. coli (6.25 μg/ml) it was 6.14; in the test on stationary phase E. coli (12.50 μg/ml), 6.14; in the test on stationary phase E. coli (25.00 μg/ml) it was 6.14.
As for `N=C1C=CC(=C(c2ccc(N)cc2)c2ccc(N)cc2)C=C1` [Pararosaniline pamoate], the MIC with log phase E. coli (setting [3]) was determined as 10 µg/mL. The log reduction at 6.25 µg/mL with persistent E. coli (6.25 μg/ml) is -0.01; in test [1] (6.25 μg/ml), 6.15; with stationary phase E. coli (6.25 μg/ml), 1.9. In addition, the log reduction at 12.5 µg/mL was 0.01 in the test with persistent E. coli (12.5 μg/ml), 6.15 in test [1] (12.5 μg/ml) and 6.14 in the test on stationary phase E. coli (12.50 μg/ml). In addition, the log reduction at 25 µg/mL with persistent E. coli (25 μg/ml) amounted to 6.21; in test [1] (25 μg/ml), 6.15; in the test on stationary phase E. coli (25.00 μg/ml), 6.14.
In the case of `C1CCC(C(CC2CCCCN2)C2CCCCC2)CC1` (stereo not shown) [Perhexiline maleate], in the test on log phase E. coli (setting [3]), the MIC is 10 µg/mL. The log reduction at 6.25 µg/mL was -0.01 with persistent E. coli (6.25 μg/ml) and 6.15 in test [1] (6.25 μg/ml). Also, the results for the log reduction at 12.5 µg/mL (in the test on persistent E. coli (12.5 μg/ml); in test [1] (12.5 μg/ml)) were 0.04 and 6.15, respectively. For the same compound, the results for the log reduction at 25 µg/mL (with persistent E. coli (25 μg/ml); in test [1] (25 μg/ml)) were 6.21 and 6.15, respectively.
Take `C[n+]1cc2c3c(ccc2c2ccc4cc5c(cc4c21)OCO5)OCO3` [Sanguinarine sulfate]: in the test with log phase E. coli (setting [3]), the MIC is greater than 50 µg/mL. Moreover, the values for the log reduction at 6.25 µg/mL (in the test with persistent E. coli (6.25 μg/ml); in test [1] (6.25 μg/ml); with stationary phase E. coli (6.25 μg/ml)) were 0.04, 6.15 and -0.1, respectively. Moreover, the log reduction at 12.5 µg/mL in the test with persistent E. coli (12.5 μg/ml) is 1.47; in test [1] (12.5 μg/ml) it was 6.15; with stationary phase E. coli (12.50 μg/ml), 2.4. For the same compound, the results for the log reduction at 25 µg/mL (in the test with persistent E. coli (25 μg/ml); in test [1] (25 μg/ml); in the test with stationary phase E. coli (25.00 μg/ml)) were 6.21, 6.15 and 6.14, respectively.
As for `CSc1ccc2c(c1)N(CCC1CCCCN1C)c1ccccc1S2` (stereo not shown) [Thioridazine hydrochloride], the MIC in the test on log phase E. coli (setting [3]) is 10 µg/mL. Also, the figures for the log reduction at 6.25 µg/mL (in the test with persistent E. coli (6.25 μg/ml); in test [1] (6.25 μg/ml); with stationary phase E. coli (6.25 μg/ml)) were 0.04, 6.03 and 6.14, respectively. Also, the results for the log reduction at 12.5 µg/mL (with persistent E. coli (12.5 μg/ml); in test [1] (12.5 μg/ml); with stationary phase E. coli (12.50 μg/ml)) were 0.03, 6.03 and 6.14, respectively. Besides, the log reduction at 25 µg/mL turned out to be 6.21 with persistent E. coli (25 μg/ml), 6.03 in test [1] (25 μg/ml) and 6.14 in the test on stationary phase E. coli (25.00 μg/ml). Moreover, the spectrophotometer reading in test [2] (thioridazine hydrochloride 0.25 mg/L alone) came to 0.98; in test [2] (thioridazine hydrochloride 0.5 mg/L alone), 0.97; in test [2] (thioridazine hydrochloride 1 mg/L alone) it was 0.97; in test [2] (thioridazine hydrochloride 2 mg/L alone), 0.96; in test [2] (thioridazine hydrochloride 4 mg/L alone), 0.96; in test [2] (thioridazine hydrochloride 8 mg/L alone), 0.96. The spectrophotometer reading in test [2] (thioridazine hydrochloride 16 mg/L alone) stood at 0.96; in test [2] (thioridazine hydrochloride 32 mg/L alone), 0.93; in test [2] (thioridazine hydrochloride 64 mg/L alone) it was 0.73; in test [2] (thioridazine hydrochloride 128 mg/L alone), 0.76; in test [2] (thioridazine hydrochloride 256 mg/L alone), 1.41.
As for Bithionate sodium, the MIC in the test on log phase E. coli turned out to be 5 µg/mL. The “Log Kill” value with persistent E. coli (6.25 μg/ml) is 0.01; in the test on persistent E. coli (12.5 μg/ml), 0.03; in the test on persistent E. coli (25 μg/ml) it was 6.21; in test [1] (6.25 μg/ml) it was 0.01; in test [1] (12.5 μg/ml) it was 6.15; in test [1] (25 μg/ml) it was 6.15.
As for Bleomycin, the MIC against log phase E. coli worked out at 0.15 µg/mL. The “Log Kill” value is on record as 1.55 in the test with persistent E. coli (6.25 μg/ml); 6.21 in the test with persistent E. coli (12.5 μg/ml); 6.21 in the test on persistent E. coli (25 μg/ml); 2.22 in the test on stationary phase E. coli (6.25 μg/ml); 6.14 in the test on stationary phase E. coli (12.50 μg/ml); 6.14 in the test with stationary phase E. coli (25.00 μg/ml).
In the case of Vitamin B12, in the test on log phase E. coli, the MIC entry is listed as “— (— signifies MIC higher than 50 μg/ml)”. Also, the figures for the “Log Kill” value in the test on persistent E. coli (6.25 μg/ml), in the test with persistent E. coli (12.5 μg/ml) and with persistent E. coli (25 μg/ml) were 0.03, 6.21 and 6.21, respectively.

The record behind these values is patent publication US9549965B2, “Pharmaceutical composition for treating a microbial infection” (HELPERBY THERAPEUTICS LIMITED, priority 2010, dated 2017).
